# Earlier results, collected in patent US7015235B2, “Acylated piperidine derivatives as melanocortin-4 receptor agonists” (priority 2001, dated 2006).
# Tested on: men
smiles,measurement,setting,value
Cc1ccc(N(CC2=NCCN2)c2cccc(O)c2)cc1 [phentolamine],duration of effect,after an oral dose,2 h
same,onset of action,after an oral dose,5 to 30 min
same,share of men/patients with adequate response,oral,35–40%
